Columns and labels:
MCF-7 cells = assay: Tamoxifen induced apoptosis, Annexin-V flow cytometry in control and RLN2 silenced MCF-7 cells; assay type: cell-based; conditions: 1 μM tamoxifen for 48 hrs, analyzed 72 hrs after withdrawal
Protocol: FIG. 13B. Flow cytometric analysis of Tamoxifen sensitivity in RLN2 silenced MCF-7 cells: RLN2 silenced and control cells were treated with 1 μm Tamoxifen or equivalent quantity of vehicle for 48 hrs and subsequently, the treatment was withdrawn. After 72 hrs, Annexin-V staining positive cells were scored in Flow cytometry, which is a measure for tamoxifen induced apoptosis.
MCF-7 cells (ATCC) were maintained in DMEM growth media supplemented with 10% fetal bovine serum (FBS), 100 U/mL penicillin, 100 U/mL streptomycin, and 2 mM L-glutamine. […] RLN2 silenced and control cells were treated with 1 μM Tamoxifen or equivalent quantity of vehicle for 48 hrs and subsequently, the treatment was withdrawn by changing the culture media to DMEM with 5% DCC. After 72 hrs, cells were trypsinized and stained with Annexin-V-Fluorescein and propidium iodide as recommended by the manufacturer (Roche) and the analyzed in Flow cytometer (Beckman-Coulter). The population of annexin-V positive cells was scored as the representation of the percentages of apoptotic cells.
To functionally investigate the association of the TuM1 signature with a tumor's response to anti-hormonal treatment, the role of a representative TuM1 gene, Relaxin2 (RLN2) was assessed in a ER+ breast cancer cellular model. […]

TuM1 module = assay: Gene set enrichment analysis of tumor module expression in tamoxifen treated MCF7 cells; assay type: cell-based; conditions: 10 μM tamoxifen, harvested at 48 hrs; FDR=0.05
Protocol: MCF-7 breast cancer cells were obtained from American Type Culture Collection center (Manassas, Va.), and cells were cultured in Dulbecco's modified Eagle medium (DMEM) (Gibco, Grand Island, N.Y.) supplemented with 10% fetal bovine serum (FBS), 100 U/mL penicillin, 100 U/mL streptomycin, and 2 mM L-glutamine. Before tamoxifen treatment, cells were washed three times in PBS and maintained in phenol red free DMEM with 5% Dextran charcoal-stripped FBS (HyClone Laboratories, Pittsburgh, Pa.) for 24 hrs. Subsequently cells were treated with 10 μM tamoxifen (Sigma) and harvested at 48 hrs. Control sister cultures were treated with an equivalent volume of the vehicle (0.1% ethanol).
GSEA was used to ask if expression of the tumor module genes might be affected by tamoxifen treatment. Four control samples and two post-treatment samples (See Materials and Methods) were used for GSEA analysis. Three modules (TuM4, 5 and 6) were filtered out due to insufficient number of genes (<10) expressed in MCF7 cell lines.
The observation that TuM1 is expressed in a subset of ER+ tumors raises the possibility that expression of this module may depend, at least in some part, on ER activity and signaling. To investigate the relationship between TuM1 expression and ER signaling, we tested the responsiveness of TuM1 to ER activity using an in vitro system. […]

CC/C(=C(\c1ccccc1)c1ccc(OCCN(C)C)cc1)c1ccccc1 [tamoxifen]
percentage of apoptotic (annexin-V-staining positive) cells (MCF-7 cells; RLN2 silenced (siRNA) MCF-7 cells): about 23%
percentage of apoptotic (annexin-V-staining positive) cells (MCF-7 cells; control MCF-7 cells): about 73%
TuM1 expression in tam-treated MCF7 cells compared to controls (GSEA) (TuM1 module): significantly downregulated
